According to patent publication US11760761B2, “Methods and compositions for targeting PD-L1” (Aligos Therapeutics, Inc., priority 2020, dated 2023):

Experiments:
PD-1/PD-L1 interaction = PD-1/PD-L1 interaction (Homo sapiens (Human), UniProt Q9NZQ7); experiment: PD-1/PD-L1 NFAT Reporter Assay (Jurkat T cells / PD-L1 expressing CHO cells co-culture); type: cell-based; conditions: for Emax: Jurkat, maximum NFAT-activation level relative to the positive control (10 nM Atezolizumab); for EC50: co-culture 6 hrs at 37° C., luciferase
Sequence of PD-1/PD-L1 interaction (Q9NZQ7 19-290): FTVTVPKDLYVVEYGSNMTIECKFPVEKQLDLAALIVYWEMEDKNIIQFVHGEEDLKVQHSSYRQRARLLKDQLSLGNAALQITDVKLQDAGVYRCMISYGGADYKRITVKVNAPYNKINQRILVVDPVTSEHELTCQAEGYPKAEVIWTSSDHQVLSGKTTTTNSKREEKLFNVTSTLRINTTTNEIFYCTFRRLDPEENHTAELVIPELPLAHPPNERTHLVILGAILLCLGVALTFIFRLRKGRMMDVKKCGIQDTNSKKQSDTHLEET
Protocol: Blocking the PD-1/PD-L1 interaction will release the inhibitory signal and results in TCR signaling and NFAT-mediated luciferase activity.
CHO cells expressing surface-bound anti-CD3 antibodies and PD-L1 were first seeded overnight and treated with the compounds. Jurkat cells overexpressing PD-1 and a luciferase construct under NF-AT promoter were then immediately seeded on the monolayer of CHO cells. The co-culture was then incubated for 6 hrs at 37° C. Luciferase activity was assessed by adding the ONE-Glo reagent and measuring luminescence with a plate reader. EC50s values were determined from the fit of the dose-response curves Emax (%) corresponds to the maximum NFAT-activation level reached by a given compound relative to the positive control (10 nM Atezolizumab).

PDL1/PD1 = PDL1/PD1 (Homo sapiens (Human), UniProt Q9NZQ7); experiment: PDL1/PD1 Binding Assay; conditions: PDL1-6xHis 0.3 nM, PD1-Fc-Avi-Biotin 2.5 nM, Acceptor/Donor beads; read-out: PD-1/PD-L1 PPI IC50
Sequence of PDL1/PD1 (Q9NZQ7 19-238): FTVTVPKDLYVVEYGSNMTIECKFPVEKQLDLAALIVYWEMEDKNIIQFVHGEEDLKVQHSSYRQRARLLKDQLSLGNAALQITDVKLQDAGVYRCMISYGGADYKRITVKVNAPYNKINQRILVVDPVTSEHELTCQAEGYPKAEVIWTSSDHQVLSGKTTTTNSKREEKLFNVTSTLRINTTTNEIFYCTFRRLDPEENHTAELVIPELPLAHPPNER
Protocol: Compounds to be tested were serially diluted in DMSO, and further diluted in assay buffer (25 mM Hepes pH 7.4, 150 mM NaCl, 0.005% Tween 20, BSA 0.01%). Diluted compounds were added to the wells with final concentration of DMSO at 1%. PDL1-6×His protein was added to the wells, mixed well with compound. The plates were incubated for 30 min at room temperature. PD1-Fc-Avi-Biotin protein was added to the wells. Final concentration of PDL1 and PD1 protein is 0.3 nM and 2.5 nM, respectively. After a binding time of 30 min at room temperature, Anti-6×His Acceptor beads (final concentration 20 ug/ml) were added to the wells, and the incubation continued for 1 h. Streptavidin Donor beads (final concentration 20 ug/mL) were added at reduced light. The plates were sealed with foil and incubated in the dark for additional 1 h or overnight before reading on an Envision reader. The IC50 values were determined by fitting the curves using a four-parameter equation in Graphpad Prism 8.

SMILES | Emax (PD-1/PD-L1 interaction) | EC50 (PD-1/PD-L1 interaction) | IC50 (PDL1/PD1)
COc1cc(-c2cccc(-c3cccc(-c4cnc(CN5CC6(CCC(=O)N6)C5)c(OC)n4)c3Cl)c2Cl)cc2c1[C@@H](N1CC(O)C1)CC2 (single isomer, unassigned) [Compound A-5] | 102% | 100 to 1000 nM | ≤ 10 nM
COc1nc(-c2cccc(-c3cccc(-c4cc5c(c(OC)n4)[C@@H](NC[C@@H]4CCC(=O)N4)CC5)c3Cl)c2Cl)cnc1CN1CC(OC)C1 [Compound D-9] | – | ≤ 10 nM | ≤ 10 nM
COc1nc(-c2cccc(-c3cccc(-c4cc5c(c(OC)n4)[C@@H](NC[C@@H]4CCC(=O)N4)CC5)c3Cl)c2Cl)cnc1CN1CC2(C1)CN(C(C)=O)C2 [Compound D-1] | – | ≤ 10 nM | –
COc1nc(-c2cccc(-c3cccc(-c4cc5c(c(OC)n4)[C@@H](NC[C@@H]4CCC(=O)N4)CC5)c3Cl)c2Cl)cnc1CNC[C@@H]1CCC(=O)N1 [Compound D-2] | – | ≤ 10 nM | ≤ 10 nM
CCOC(=O)C1CN([C@@H]2CCc3cc(-c4cccc(-c5cccc(-c6cnc(CN7CC8(CCC(=O)N8)C7)c(OC)n6)c5Cl)c4Cl)cc(OC)c32)C1 (single isomer, unassigned) [Compound A-4] | 18% | – | ≤ 10 nM
COc1nc(-c2cccc(-c3cccc(-c4cc5c(c(OC)n4)[C@H](NC[C@@H]4CCC(=O)N4)CC5)c3Cl)c2Cl)cnc1CN1CC2(CCC(=O)N2)C1 [Compound C-2] | – | 100 to 1000 nM | ≤ 10 nM
COc1cc(-c2cccc(-c3cccc(-c4cnc(CN5CC6(CCC(=O)N6)C5)c(OC)n4)c3Cl)c2Cl)cc2c1C[C@@H](N1CC3(CCC(=O)N3)C1)C2 (single isomer, unassigned) [Compound A-12] | 191% | 10 to 100 nM | ≤ 10 nM
COc1nc(-c2cccc(-c3cccc(-c4cc5c(c(OC)n4)[C@@H](N4CC6(CCC(=O)N6)C4)CC5)c3Cl)c2Cl)cnc1CN1CC2(CCC(=O)N2)C1 (single isomer, unassigned) [Compound C-3] | – | ≤ 10 nM | ≤ 10 nM
COc1nc(-c2cccc(-c3cccc(-c4cc5c(c(OC)n4)C(N4CCN(C(C)=O)CC4)CC5)c3Cl)c2Cl)cnc1CN1CC2(CCC(=O)N2)C1 (centres unmarked) [Compound C-10] | – | 10 to 100 nM | ≤ 10 nM
CCOC(=O)CN[C@H]1CCc2cc(-c3cccc(-c4cccc(-c5cnc(CN6CC7(CCC(=O)N7)C6)c(OC)n5)c4Cl)c3Cl)cc(OC)c21 [Compound A-1] | 33% | – | ≤ 10 nM
COc1nc(-c2cccc(-c3cccc(-c4cc5c(c(OC)n4)C(NC4CN(C(C)=O)C4)CC5)c3Cl)c2Cl)cnc1CN1CC2(CCC(=O)N2)C1 (centres unmarked) [Compound C-8] | – | 10 to 100 nM | ≤ 10 nM
COc1nc(-c2cccc(-c3cccc(-c4cc5c(c(OC)n4)[C@H](N4CC(O)C4)CC5)c3Cl)c2Cl)cnc1CN1CC2(CCC(=O)N2)C1 (single isomer, unassigned) [Compound C-6] | – | 100 to 1000 nM | ≤ 10 nM
COc1nc(-c2cccc(-c3cccc(-c4cc5c(c(OCC(C)C)n4)C(NC[C@@H]4CCC(=O)N4)CC5)c3Cl)c2Cl)cnc1CN1CC2(CCC(=O)N2)C1 (some centres unmarked) [Compound C-13] | – | 10 to 100 nM | –
COc1cc(-c2cccc(-c3cccc(-c4cnc(CN5CC6(CCC(=O)N6)C5)c(OC)n4)c3Cl)c2Cl)cc2c1[C@H](N1CC(O)C1)CC2 (single isomer, unassigned) [Compound A-6] | 32% | – | ≤ 10 nM
COc1nc(-c2cccc(-c3cccc(-c4cc5c(c(OC)n4)[C@@H](NC[C@@H]4CCC(=O)N4)CC5)c3Cl)c2Cl)cnc1CN1CC2(CCC(=O)N2)C1 [Compound C-1] | – | ≤ 10 nM | –
COc1nc(-c2cccc(-c3cccc(-c4cc5c(c(OC)n4)C(N4CC6(CN(C(C)=O)C6)C4)CC5)c3Cl)c2Cl)cnc1CN1CC2(CCC(=O)N2)C1 (centres unmarked) [Compound C-11] | – | 10 to 100 nM | ≤ 10 nM
COc1nc(-c2cccc(-c3cccc(-c4cc5c(c(OC)n4)[C@@H](NC[C@@H]4CCC(=O)N4)CC5)c3Cl)c2Cl)cnc1CN1C[C@@H](O)[C@@H]1C [Compound D-13] | – | ≤ 10 nM | ≤ 10 nM
CCOC(=O)CN[C@@H]1CCc2cc(-c3cccc(-c4cccc(-c5cnc(CN6CC7(CCC(=O)N7)C6)c(OC)n5)c4Cl)c3Cl)cc(OC)c21 (single isomer, unassigned) [Compound A-2] | 85% | 100 to 1000 nM | ≤ 10 nM
COc1nc(-c2cccc(-c3cccc(-c4cc5c(c(OC)n4)[C@H](N4CC6(CCC(=O)N6)C4)CC5)c3Cl)c2Cl)cnc1CN1CC2(CCC(=O)N2)C1 (single isomer, unassigned) [Compound C-4] | – | > 10000 nM | ≤ 10 nM
COc1nc(-c2cccc(-c3cccc(-c4cc5c(c(OC)n4)C(N4CCC(C(=O)O)CC4)CC5)c3Cl)c2Cl)cnc1CN1CC(O)C1 (centres unmarked) [Compound F-3] | – | 10 to 100 nM | ≤ 10 nM
COc1nc(-c2cccc(-c3cccc(-c4cc5c(c(OC)n4)[C@@H](NC[C@@H]4CCC(=O)N4)CC5)c3Cl)c2Cl)cnc1CN1CCN(C(C)=O)CC1 [Compound D-6] | – | ≤ 10 nM | ≤ 10 nM
COc1nc(-c2cccc(-c3cccc(-c4cc5c(c(OC)n4)C(N4CCC[C@@H](C(=O)O)C4)CC5)c3Cl)c2Cl)cnc1CN1CC(O)C1 (some centres unmarked) [Compound F-1] | – | 10 to 100 nM | –
COc1nc(-c2cccc(-c3cccc(-c4cc5c(c(OC)n4)[C@@H](NC[C@@H]4CCC(=O)N4)CC5)c3Cl)c2Cl)cc(C)c1CN1CC2(C1)CN(C(C)=O)C2 [Compound E-2] | – | ≤ 10 nM | –
COc1nc(-c2cccc(-c3cccc(-c4cc5c(c(OC)n4)[C@@H](NC[C@@H]4CCC(=O)N4)CC5)c3Cl)c2Cl)ccc1CNC[C@@H]1CCC(=O)N1 [Compound E-1] | – | ≤ 10 nM | –
COc1nc(-c2cccc(-c3cccc(-c4cc5c(c(OC)n4)[C@H](NC[C@@H]4CCC(=O)N4)CC5)c3Cl)c2Cl)cnc1CN1CCCC1 [Compound D-12] | – | – | ≤ 10 nM
COc1nc(-c2cccc(-c3cccc(-c4cc5c(c(OC)n4)[C@H](NC[C@@H]4CCC(=O)N4)CO5)c3Cl)c2Cl)cc(C)c1CN1CC2(C1)CN(C(C)=O)C2 (single isomer, unassigned) [Compound E-5] | – | – | ≤ 10 nM
COc1nc(-c2cccc(-c3cccc(-c4cc5c(c(OC)n4)[C@@H](N4CC6(CN(C(C)=O)C6)C4)CC5)c3Cl)c2Cl)cnc1CNC[C@@H]1CCC(=O)N1 (single isomer, unassigned) [Compound D-16] | – | – | ≤ 10 nM

Next, values leading:

Emax (PD-1/PD-L1 interaction) | EC50 (PD-1/PD-L1 interaction) | IC50 (PDL1/PD1) | SMILES
– | – | ≤ 10 nM | CCOC(=O)C1CN([C@@H]2CCc3cc(-c4cccc(-c5cccc(-c6cnc(CN7CC(O)C7)c(OC)n6)c5Cl)c4Cl)nc(OC)c32)C1 (single isomer, unassigned) [Compound G-2]
– | 1000 to 10000 nM | – | CCOC(=O)CN1CCc2c(cc(-c3cccc(-c4cccc(-c5cnc(CN6CC(O)(C(F)(F)F)C6)c(OC)n5)c4Cl)c3Cl)nc2OC)C1 [Compound I-3]
– | 10 to 100 nM | ≤ 10 nM | COc1nc(-c2cccc(-c3cccc(-c4cc5c(c(OC)n4)[C@@H](N4CC(C(=O)O)C4)CC5)c3Cl)c2Cl)cnc1CN1CC(OC)C1 (single isomer, unassigned) [Compound H-3]
– | 10 to 100 nM | – | COCCN1CCc2c(cc(-c3cccc(-c4cccc(-c5cnc(CN6CC7(CCC(=O)N7)C6)c(OC)n5)c4Cl)c3Cl)nc2OC)C1 [Compound K-2]
– | 100 to 1000 nM | ≤ 10 nM | COc1nc(-c2cccc(-c3cccc(-c4cc5c(c(OC)n4)[C@H](N4CC(C(=O)O)C4)CC5)c3Cl)c2Cl)cnc1CN1CC(OC)C1 (single isomer, unassigned) [Compound H-4]
– | 100 to 1000 nM | – | CCOC(=O)CN1CCc2c(cc(-c3cccc(-c4cccc(-c5cnc(CN6CC(O)C6)c(OC)n5)c4Cl)c3Cl)nc2OC)C1 [Compound I-1]
– | 10 to 100 nM | – | CCOC(=O)C1CN([C@H]2CCc3cc(-c4cccc(-c5cccc(-c6cnc(CN7CC(O)C7)c(OC)n6)c5Cl)c4Cl)nc(OC)c32)C1 [Compound G-1]
– | 10 to 100 nM | – | COc1nc(-c2cccc(-c3cccc(-c4cc5c(c(OC)n4)[C@@H](N4CC(C(=O)O)C4)CC5)c3Cl)c2Cl)cnc1CN1CC(O)C1 [Compound H-1]
– | 10 to 100 nM | – | COc1nc(-c2cccc(-c3cccc(-c4cc5c(c(OC)n4)CCN(CC(=O)O)C5)c3Cl)c2Cl)cnc1CN1CC(O)C1 [Compound J-1]
– | > 10000 nM | – | CCOC(=O)C1CN([C@H]2CCc3cc(-c4cccc(-c5cccc(-c6cnc(CN7C[C@@H](O)[C@@H]7C)c(OC)n6)c5Cl)c4Cl)nc(OC)c32)C1 (single isomer, unassigned) [Compound G-3]
– | 10 to 100 nM | – | COc1nc(-c2cccc(-c3cccc(-c4cc5c(c(OC)n4)CCN(C[C@@H]4CCC(=O)N4)C5)c3Cl)c2Cl)cnc1CN1CC2(CCC(=O)N2)C1 [Compound K-1]
– | 1000 to 10000 nM | – | CCOC(=O)C1CN([C@@H]2CCc3cc(-c4cccc(-c5cccc(-c6cnc(CN7C[C@@H](O)[C@@H]7C)c(OC)n6)c5Cl)c4Cl)nc(OC)c32)C1 (single isomer, unassigned) [Compound G-4]
